ChEMBL document CHEMBL4507294, “Data for DCP probe MSD-CYP11B2” (2021)

Tests used:
[1] = target: Mitogen-activated protein kinase kinase kinase 14 (Homo sapiens) (UniProt Q99558); details: Compound concentration 1000.0 nM
[2] = target: Serine/threonine-protein kinase WNK3 (Homo sapiens) (UniProt Q9BYP7); details: Compound concentration 1000.0 nM
[3] = target: Tyrosine-protein kinase Fes/Fps (Homo sapiens) (UniProt P07332); details: Compound concentration 1000.0 nM
[4] = target: Mitogen-activated protein kinase 11 (Homo sapiens) (UniProt Q15759); details: Compound concentration 1000.0 nM
Sequence of Mitogen-activated protein kinase 11 (Homo sapiens) (Q15759 whole entry): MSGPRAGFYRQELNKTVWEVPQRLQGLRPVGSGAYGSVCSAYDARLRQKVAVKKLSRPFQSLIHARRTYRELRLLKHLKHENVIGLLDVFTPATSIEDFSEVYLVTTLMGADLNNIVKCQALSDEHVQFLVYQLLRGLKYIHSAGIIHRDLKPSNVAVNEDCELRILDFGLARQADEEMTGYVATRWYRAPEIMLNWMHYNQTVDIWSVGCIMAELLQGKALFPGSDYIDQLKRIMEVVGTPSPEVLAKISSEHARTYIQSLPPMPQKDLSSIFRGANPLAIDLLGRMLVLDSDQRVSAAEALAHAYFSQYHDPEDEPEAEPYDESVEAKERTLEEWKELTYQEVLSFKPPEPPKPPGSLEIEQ

[5] = target: Serine/threonine-protein kinase PLK1 (Homo sapiens) (UniProt P53350); details: Compound concentration 1000.0 nM
[6] = target: T1, 5-hydroxytryptamine receptor 3A (Homo sapiens) (UniProt P46098); details: Compound concentration 10.0 uM
T1 sequence (whole entry): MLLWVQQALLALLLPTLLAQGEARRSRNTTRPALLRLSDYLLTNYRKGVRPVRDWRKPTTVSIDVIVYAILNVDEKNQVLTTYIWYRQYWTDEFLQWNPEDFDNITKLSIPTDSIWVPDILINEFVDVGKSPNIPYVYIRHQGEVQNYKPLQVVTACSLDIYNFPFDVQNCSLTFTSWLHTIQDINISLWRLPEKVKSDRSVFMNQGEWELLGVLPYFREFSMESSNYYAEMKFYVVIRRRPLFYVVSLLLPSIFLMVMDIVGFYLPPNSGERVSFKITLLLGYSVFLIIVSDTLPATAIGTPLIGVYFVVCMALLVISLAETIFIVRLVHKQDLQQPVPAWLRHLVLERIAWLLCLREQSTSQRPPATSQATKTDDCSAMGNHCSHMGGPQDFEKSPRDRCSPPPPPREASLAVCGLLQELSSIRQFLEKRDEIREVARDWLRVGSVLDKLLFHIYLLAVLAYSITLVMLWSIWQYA

[7] = target: Mast/stem cell growth factor receptor Kit (Homo sapiens) (UniProt P10721); details: Compound concentration 1000.0 nM
Sequence of Mast/stem cell growth factor receptor Kit (Homo sapiens) (P10721 whole entry): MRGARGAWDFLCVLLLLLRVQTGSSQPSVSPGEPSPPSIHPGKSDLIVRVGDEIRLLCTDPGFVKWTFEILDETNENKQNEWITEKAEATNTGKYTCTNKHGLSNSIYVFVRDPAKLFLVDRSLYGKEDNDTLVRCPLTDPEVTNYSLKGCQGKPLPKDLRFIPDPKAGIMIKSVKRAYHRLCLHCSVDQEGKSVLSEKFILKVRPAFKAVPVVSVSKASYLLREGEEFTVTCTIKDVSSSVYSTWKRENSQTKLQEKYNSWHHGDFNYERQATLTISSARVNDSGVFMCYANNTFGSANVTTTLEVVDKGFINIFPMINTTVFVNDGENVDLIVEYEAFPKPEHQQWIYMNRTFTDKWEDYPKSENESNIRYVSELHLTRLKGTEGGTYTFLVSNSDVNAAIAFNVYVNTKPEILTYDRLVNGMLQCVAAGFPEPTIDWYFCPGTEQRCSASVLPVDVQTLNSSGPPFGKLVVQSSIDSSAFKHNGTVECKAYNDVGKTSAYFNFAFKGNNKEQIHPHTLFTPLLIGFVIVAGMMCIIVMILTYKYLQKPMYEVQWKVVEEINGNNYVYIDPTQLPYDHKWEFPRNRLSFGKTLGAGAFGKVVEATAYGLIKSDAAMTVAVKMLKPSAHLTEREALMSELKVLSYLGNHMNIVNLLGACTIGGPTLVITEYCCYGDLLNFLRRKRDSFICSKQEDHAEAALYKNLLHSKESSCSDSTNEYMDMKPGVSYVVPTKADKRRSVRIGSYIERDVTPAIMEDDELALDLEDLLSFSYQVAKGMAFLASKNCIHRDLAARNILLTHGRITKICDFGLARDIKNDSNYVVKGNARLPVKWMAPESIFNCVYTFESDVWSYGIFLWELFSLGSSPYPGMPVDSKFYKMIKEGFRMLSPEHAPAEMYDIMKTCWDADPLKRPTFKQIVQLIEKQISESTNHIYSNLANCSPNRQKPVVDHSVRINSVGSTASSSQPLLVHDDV

[8] = target: Interleukin-1 receptor-associated kinase 3 (Homo sapiens) (UniProt Q9Y616); details: Compound concentration 1000.0 nM
Sequence of Interleukin-1 receptor-associated kinase 3 (Homo sapiens) (Q9Y616 whole entry): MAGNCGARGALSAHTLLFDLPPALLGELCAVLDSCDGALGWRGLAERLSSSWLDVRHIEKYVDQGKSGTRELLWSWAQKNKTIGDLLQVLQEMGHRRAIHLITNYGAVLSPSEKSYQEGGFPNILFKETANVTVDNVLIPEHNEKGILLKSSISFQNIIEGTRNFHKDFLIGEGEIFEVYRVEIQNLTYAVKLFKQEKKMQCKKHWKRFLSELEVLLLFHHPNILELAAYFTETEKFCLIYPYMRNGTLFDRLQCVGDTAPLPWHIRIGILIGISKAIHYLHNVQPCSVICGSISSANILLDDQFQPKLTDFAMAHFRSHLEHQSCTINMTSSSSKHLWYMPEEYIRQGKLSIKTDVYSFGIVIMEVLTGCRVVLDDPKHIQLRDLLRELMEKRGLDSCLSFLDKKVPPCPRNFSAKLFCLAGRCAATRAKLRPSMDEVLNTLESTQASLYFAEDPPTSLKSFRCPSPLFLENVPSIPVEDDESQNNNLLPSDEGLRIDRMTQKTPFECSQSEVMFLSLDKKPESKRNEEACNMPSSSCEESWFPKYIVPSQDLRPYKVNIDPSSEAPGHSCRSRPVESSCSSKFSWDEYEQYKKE

[9] = target: Protein kinase C theta type (Homo sapiens) (UniProt Q04759); details: Compound concentration 1000.0 nM
[10] = target: Serine/threonine-protein kinase WNK4 (Homo sapiens) (UniProt Q96J92); details: Compound concentration 1000.0 nM
[11] = target: Tyrosine-protein kinase Fgr (Homo sapiens) (UniProt P09769); details: Compound concentration 1000.0 nM
Sequence of Tyrosine-protein kinase Fgr (Homo sapiens) (P09769 2-529 limits assumed): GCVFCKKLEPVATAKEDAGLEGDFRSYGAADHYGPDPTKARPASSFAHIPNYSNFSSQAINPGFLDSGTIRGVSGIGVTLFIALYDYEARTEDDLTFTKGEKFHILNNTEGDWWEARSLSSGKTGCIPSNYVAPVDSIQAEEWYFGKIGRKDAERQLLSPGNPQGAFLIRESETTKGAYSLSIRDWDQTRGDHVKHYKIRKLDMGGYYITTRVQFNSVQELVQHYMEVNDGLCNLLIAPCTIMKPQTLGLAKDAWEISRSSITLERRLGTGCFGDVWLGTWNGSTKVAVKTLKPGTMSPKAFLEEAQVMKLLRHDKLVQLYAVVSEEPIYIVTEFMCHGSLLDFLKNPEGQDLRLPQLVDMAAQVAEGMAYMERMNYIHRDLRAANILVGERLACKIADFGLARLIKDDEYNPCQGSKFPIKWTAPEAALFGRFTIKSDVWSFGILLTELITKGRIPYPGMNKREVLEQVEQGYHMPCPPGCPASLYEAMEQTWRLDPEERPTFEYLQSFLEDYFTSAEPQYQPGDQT

[12] = target: Leucine-rich repeat serine/threonine-protein kinase 2 (Homo sapiens) (UniProt Q5S007); details: Compound concentration 1000.0 nM
[13] = target: Beta-1 adrenergic receptor (Homo sapiens, UniProt P08588); details: Compound concentration 10.0 uM
Sequence of Beta-1 adrenergic receptor (P08588 whole entry, looked up): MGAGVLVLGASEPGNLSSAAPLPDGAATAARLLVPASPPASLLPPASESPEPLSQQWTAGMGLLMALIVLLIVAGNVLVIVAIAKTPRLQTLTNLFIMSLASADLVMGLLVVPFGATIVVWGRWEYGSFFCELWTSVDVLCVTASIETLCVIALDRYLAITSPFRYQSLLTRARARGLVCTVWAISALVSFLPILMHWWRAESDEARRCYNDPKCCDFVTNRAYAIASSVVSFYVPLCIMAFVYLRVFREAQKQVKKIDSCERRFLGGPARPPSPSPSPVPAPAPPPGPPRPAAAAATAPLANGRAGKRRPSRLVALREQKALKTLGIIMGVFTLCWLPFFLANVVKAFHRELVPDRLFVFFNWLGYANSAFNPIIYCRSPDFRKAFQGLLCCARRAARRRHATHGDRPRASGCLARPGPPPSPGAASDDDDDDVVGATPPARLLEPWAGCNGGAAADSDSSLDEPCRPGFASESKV

[14] = target: STE20-like serine/threonine-protein kinase (Homo sapiens) (UniProt Q9H2G2); details: Compound concentration 1000.0 nM
[15] = tested on: Epidermal growth factor receptor (Homo sapiens), P00533 [L861Q]; details: Compound concentration 1000.0 nM
[16] = target: Insulin receptor-related protein (Homo sapiens) (UniProt P14616); details: Compound concentration 1000.0 nM
[17] = tested on: Phosphatidylinositol 4,5-bisphosphate 3-kinase catalytic subunit alpha isoform (Homo sapiens), P42336 [Q546K]; details: Compound concentration 1000.0 nM
[18] = target: TGF-beta receptor type-2 (Homo sapiens) (UniProt P37173); details: Compound concentration 1000.0 nM
Sequence of TGF-beta receptor type-2 (Homo sapiens) (P37173 whole entry): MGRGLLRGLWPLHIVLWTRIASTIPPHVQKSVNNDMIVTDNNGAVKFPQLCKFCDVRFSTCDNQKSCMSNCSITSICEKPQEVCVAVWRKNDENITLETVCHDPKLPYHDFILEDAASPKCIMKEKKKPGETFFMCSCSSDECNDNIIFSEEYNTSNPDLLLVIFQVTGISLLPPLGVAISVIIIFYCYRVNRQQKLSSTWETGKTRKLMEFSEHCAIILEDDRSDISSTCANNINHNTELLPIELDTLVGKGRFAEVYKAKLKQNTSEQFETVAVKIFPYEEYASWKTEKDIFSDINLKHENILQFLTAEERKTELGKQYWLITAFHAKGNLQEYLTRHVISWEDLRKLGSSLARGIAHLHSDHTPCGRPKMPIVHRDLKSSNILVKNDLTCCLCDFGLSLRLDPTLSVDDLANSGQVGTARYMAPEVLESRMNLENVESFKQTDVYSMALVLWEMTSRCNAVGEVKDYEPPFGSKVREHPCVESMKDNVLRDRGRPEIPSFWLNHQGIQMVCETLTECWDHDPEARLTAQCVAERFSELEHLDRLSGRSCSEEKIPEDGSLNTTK

[19] = tested on: Tyrosine-protein kinase ABL1 (Homo sapiens), P00519 [F317L]; details: Compound concentration 1000.0 nM
[20] = target: Ephrin type-A receptor 8 (Homo sapiens) (UniProt P29322); details: Compound concentration 1000.0 nM
Sequence of Ephrin type-A receptor 8 (Homo sapiens) (P29322 whole entry): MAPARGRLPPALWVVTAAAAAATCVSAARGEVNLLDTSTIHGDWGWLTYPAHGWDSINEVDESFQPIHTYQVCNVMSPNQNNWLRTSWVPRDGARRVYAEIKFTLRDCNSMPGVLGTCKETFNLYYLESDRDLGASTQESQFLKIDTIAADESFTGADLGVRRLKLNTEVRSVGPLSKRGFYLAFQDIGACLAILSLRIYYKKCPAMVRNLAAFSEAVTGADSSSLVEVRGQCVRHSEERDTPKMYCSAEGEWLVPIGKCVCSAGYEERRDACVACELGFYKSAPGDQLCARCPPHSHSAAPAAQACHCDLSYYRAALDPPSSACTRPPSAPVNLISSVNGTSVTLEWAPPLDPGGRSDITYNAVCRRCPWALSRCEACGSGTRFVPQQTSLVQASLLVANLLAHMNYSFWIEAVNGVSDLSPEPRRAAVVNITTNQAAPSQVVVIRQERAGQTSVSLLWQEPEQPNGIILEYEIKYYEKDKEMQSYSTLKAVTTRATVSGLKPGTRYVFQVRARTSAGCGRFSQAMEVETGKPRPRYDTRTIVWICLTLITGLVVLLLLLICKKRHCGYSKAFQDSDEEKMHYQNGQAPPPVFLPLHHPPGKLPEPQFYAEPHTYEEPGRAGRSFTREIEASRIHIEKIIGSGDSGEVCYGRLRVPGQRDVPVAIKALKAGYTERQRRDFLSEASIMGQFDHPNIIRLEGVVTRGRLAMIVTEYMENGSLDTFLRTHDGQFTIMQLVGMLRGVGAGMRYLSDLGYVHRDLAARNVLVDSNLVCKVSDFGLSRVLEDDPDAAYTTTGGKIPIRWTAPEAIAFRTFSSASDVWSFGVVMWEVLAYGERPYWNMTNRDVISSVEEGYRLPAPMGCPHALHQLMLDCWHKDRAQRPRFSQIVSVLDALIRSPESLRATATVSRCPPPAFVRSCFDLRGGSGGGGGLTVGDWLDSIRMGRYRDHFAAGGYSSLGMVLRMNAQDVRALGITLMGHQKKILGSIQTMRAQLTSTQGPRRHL

[21] = tested on: Tyrosine-protein kinase ABL1 (Homo sapiens), P00519 [H396P]; details: Compound concentration 1000.0 nM
[22] = target: Testis-specific serine/threonine-protein kinase 3 (Homo sapiens) (UniProt Q96PN8); details: Compound concentration 1000.0 nM
[23] = target: Calcium/calmodulin-dependent protein kinase type 1B (Homo sapiens) (UniProt Q6P2M8); details: Compound concentration 1000.0 nM
[24] = tested on: Epidermal growth factor receptor (Homo sapiens), P00533 [L858R]; details: Compound concentration 1000.0 nM
[25] = target: SRSF protein kinase 3 (Homo sapiens) (UniProt Q9UPE1); details: Compound concentration 1000.0 nM
[26] = target: Serine/threonine-protein kinase BRSK1 (Homo sapiens) (UniProt Q8TDC3); details: Compound concentration 1000.0 nM
[27] = target: Muscle, skeletal receptor tyrosine-protein kinase (Homo sapiens) (UniProt O15146); details: Compound concentration 1000.0 nM
[28] = tested on: Receptor-type tyrosine-protein kinase FLT3 (Homo sapiens), P36888 [K663Q]; details: Compound concentration 1000.0 nM
[29] = target: Mitogen-activated protein kinase 14 (Homo sapiens) (UniProt Q16539); details: Compound concentration 1000.0 nM
Sequence of Mitogen-activated protein kinase 14 (Homo sapiens) (Q16539 whole entry): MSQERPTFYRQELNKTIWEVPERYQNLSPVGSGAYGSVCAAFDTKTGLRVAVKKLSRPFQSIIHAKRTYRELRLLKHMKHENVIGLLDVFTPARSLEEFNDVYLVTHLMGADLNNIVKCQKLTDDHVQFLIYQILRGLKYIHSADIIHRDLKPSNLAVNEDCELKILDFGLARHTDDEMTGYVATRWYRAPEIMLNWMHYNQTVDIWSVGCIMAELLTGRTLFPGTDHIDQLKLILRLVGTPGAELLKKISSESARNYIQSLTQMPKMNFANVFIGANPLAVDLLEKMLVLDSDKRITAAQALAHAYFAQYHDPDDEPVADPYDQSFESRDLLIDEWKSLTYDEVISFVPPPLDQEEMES

[30] = tested on: Fibroblast growth factor receptor 3 (Homo sapiens), P22607 [G697C]; details: Compound concentration 1000.0 nM
[31] = target: Dual specificity mitogen-activated protein kinase kinase 4 (Homo sapiens) (UniProt P45985); details: Compound concentration 1000.0 nM
[32] = target: Non-receptor tyrosine-protein kinase TNK1 (Homo sapiens) (UniProt Q13470); details: Compound concentration 1000.0 nM
[33] = target: 5-hydroxytryptamine receptor 1D (Homo sapiens) (UniProt P28221); details: Compound concentration 10.0 uM
[34] = target: Homeodomain-interacting protein kinase 4 (Homo sapiens) (UniProt Q8NE63); details: Compound concentration 1000.0 nM
[35] = target: Serine/threonine-protein kinase Nek4 (Homo sapiens) (UniProt P51957); details: Compound concentration 1000.0 nM
[36] = target: STE20/SPS1-related proline-alanine-rich protein kinase (Homo sapiens) (UniProt Q9UEW8); details: Compound concentration 1000.0 nM
[37] = target: Serine/threonine-protein kinase MRCK beta (Homo sapiens) (UniProt Q9Y5S2); details: Compound concentration 1000.0 nM
[38] = target: Tyrosine-protein kinase JAK1 (Homo sapiens) (UniProt P23458); details: Compound concentration 1000.0 nM

For `FC(F)(F)c1ccc2c(c1)nc(-c1cccnc1)n2C1CC1` [MSD-CYP11B2-Negative-control], which residual activity [1] is on record?
Its residual activity is 100%.

And the residual activity [2]?
The residual activity was 100%.

What about the residual activity [3] of the same molecule?
The residual activity was 100%.

And the residual activity [4]?
The residual activity was 100%.

And the residual activity [5]?
Its residual activity is 96%.

What about the inhibition [6] of the same molecule?
Its inhibition is -8.72%.

And the residual activity [7]?
The residual activity was 85%.

And the residual activity [8]?
The residual activity was 100%.

And the residual activity [9]?
The residual activity was 100%.

And the residual activity [10]?
The residual activity was 100%.

And the residual activity [11]?
The residual activity was 100%.

What about the residual activity [12] of the same molecule?
Its residual activity is 100%.

What about the inhibition [13] of the same molecule?
Its inhibition is 13.4%.

And the residual activity [14]?
The residual activity was 100%.

And the residual activity [15]?
Its residual activity is 100%.

What about the residual activity [16] of the same molecule?
Its residual activity is 100%.

What about the residual activity [17] of the same molecule?
The residual activity was 99%.

What about the residual activity [18] of the same molecule?
The residual activity was 100%.

And the residual activity [19]?
The residual activity was 100%.

And the residual activity [20]?
Its residual activity is 100%.

What about the residual activity [21] of the same molecule?
Its residual activity is 82%.

And the residual activity [22]?
The residual activity was 65%.

And the residual activity [23]?
Its residual activity is 100%.

What about the residual activity [24] of the same molecule?
The residual activity was 91%.

What about the residual activity [25] of the same molecule?
The residual activity was 100%.

What about the residual activity [26] of the same molecule?
The residual activity was 100%.

What about the residual activity [27] of the same molecule?
The residual activity was 100%.

And the residual activity [28]?
Its residual activity is 100%.

What about the residual activity [29] of the same molecule?
The residual activity was 99%.

And the residual activity [30]?
The residual activity was 100%.

What about the residual activity [31] of the same molecule?
The residual activity was 100%.

And the residual activity [32]?
Its residual activity is 100%.

What about the inhibition [33] of the same molecule?
Its inhibition is 6.79%.

And the residual activity [34]?
Its residual activity is 100%.

And the residual activity [35]?
Its residual activity is 100%.

What about the residual activity [36] of the same molecule?
Its residual activity is 100%.

What about the residual activity [37] of the same molecule?
Its residual activity is 100%.

What about the residual activity [38] of the same molecule?
The residual activity was 85%.

With `CC(C)(O)c1cncc(-c2nc3ccc(F)cc3n2C2CC2)c1` [MSD-CYP11B2] as the molecule, how does the residual activity [1] read?
Its residual activity is 100%.

And the residual activity [2]?
Its residual activity is 100%.

What about the residual activity [3] of the same molecule?
The residual activity was 100%.

And the residual activity [4]?
Its residual activity is 100%.

What about the residual activity [5] of the same molecule?
The residual activity was 100%.

And the inhibition [6]?
Its inhibition is -6.88%.

And the residual activity [7]?
The residual activity was 86%.

And the residual activity [8]?
The residual activity was 100%.

And the residual activity [9]?
Its residual activity is 100%.

What about the residual activity [10] of the same molecule?
Its residual activity is 100%.

And the residual activity [11]?
The residual activity was 100%.

And the residual activity [12]?
Its residual activity is 100%.

What about the inhibition [13] of the same molecule?
The inhibition was 59.4%.

And the residual activity [14]?
Its residual activity is 100%.

And the residual activity [15]?
Its residual activity is 100%.

And the residual activity [16]?
Its residual activity is 100%.

What about the residual activity [17] of the same molecule?
The residual activity was 78%.

And the residual activity [18]?
The residual activity was 100%.

What about the residual activity [19] of the same molecule?
The residual activity was 100%.

And the residual activity [20]?
The residual activity was 100%.

And the residual activity [21]?
Its residual activity is 85%.

And the residual activity [22]?
The residual activity was 84%.

What about the residual activity [23] of the same molecule?
The residual activity was 100%.

And the residual activity [24]?
The residual activity was 100%.

What about the residual activity [25] of the same molecule?
Its residual activity is 100%.

What about the residual activity [26] of the same molecule?
Its residual activity is 100%.

And the residual activity [27]?
Its residual activity is 100%.

And the residual activity [28]?
Its residual activity is 100%.

And the residual activity [29]?
Its residual activity is 100%.

What about the residual activity [30] of the same molecule?
Its residual activity is 100%.

And the residual activity [31]?
The residual activity was 100%.

And the residual activity [32]?
The residual activity was 100%.

What about the inhibition [33] of the same molecule?
Its inhibition is 0.75%.

And the residual activity [34]?
The residual activity was 100%.

What about the residual activity [35] of the same molecule?
The residual activity was 100%.

What about the residual activity [36] of the same molecule?
Its residual activity is 100%.

And the residual activity [37]?
The residual activity was 100%.

And the residual activity [38]?
The residual activity was 80%.
